Experiment: Binding affinity towards Alpha1D dog adrenergic receptors, using [125I]-HEAT as radioligand.

Ki: 133 nM
SMILES: C[C@@H]1OC(=O)N(C(=O)NCCCN2CCC(c3ccc(F)cc3)CC2)[C@H]1c1ccc(F)c(F)c1 [4-(3,4-Difluoro-phenyl)-5-methyl-2-oxo-oxazolidine-3-carboxylic acid {3-[4-(4-fluoro-phenyl)-piperidin-1-yl]-propyl}-amide]

Reference: BindingDB's records for doi:10.1021/jm000085e (Synaptic Pharmaceutical, 2000)
